Measured values from patent US7417027B2, “Linear and cyclic melanocortin receptor-specific peptides” (Palatin Technologies, Inc., priority 2001, dated 2008).

Assays:
hMC5-R = molecular target: T1, hMC5-R (Homo sapiens, UniProt P33032); assay: Competitive inhibition binding assay, 125I-NDP-alpha-MSH, hMC5-R membranes
T1 construct: expressed in transfected cells

[1] = Penile erection induction in male rats; format: in vivo, rat; settings: male Sprague-Dawley rats; iv, varying quantities; 30 minutes observation; FIG. 2
Procedure: The ability of compounds to induce penile erection (PE) in male rats was evaluated with selected peptides. Male Sprague-Dawley rats weighing 200-250 g were kept on a 12 hour on/off light cycle with food and water ad libitum. All behavioral studies were performed between 10 a.m. and 5 p.m. Groups of 4-8 rats were treated with peptides at a variety of doses via intravenous (IV), subcutaneous (SC), intracerebroventricular (ICV), intraperitoneal (IP) injection or administered intranasally (IN) using a micropipetor to deliver 25 μL of solution into one nostril. Immediately after treatment, rats were placed into individual polystyrene cages (27 cm long, 16 cm wide, and 25 cm high) for behavioral observation.

MC4-R [2] = molecular target: T2, MC4-R (Homo sapiens, UniProt P32245); assay: Functional evaluation: intracellular cAMP accumulation in HEK-293 cells expressing MC4-R (agonist/antagonist status); format: cell-based; design: expressed in transfected cells; host or cells: HEK-293; settings: with or without alpha-MSH, 1 hour at 37° C
Procedure: The Ki (nM) of certain peptides were determined, as was the agonist/antagonist status with respect to MC4-R. Functional evaluation of peptides at MC4-R was performed by measuring the accumulation of intracellular cAMP in HEK-293 cells expressing MC4-R. Antagonistic activity was determined by measuring the inhibition of α-MSH-induced cAMP levels following exposure to the compounds. Cells, suspended in Earle's Balanced Salt Solution containing 10 mM HEPES, pH 7.5, 5 mM MgCl2, 1 mM glutamine, 0.1% albumin and 0.6 mM 3-isobutyl-1-methyl-xanthine, a phosphodiesterase inhibitor, were plated in 96 well plates at a density of 0.5×10^5 cells per well. Cells were incubated with the test peptides in the presence or absence of α-MSH for 1 hour at 37° C. cAMP levels were measured by EIA (Amersham) in the cell lysates. Data analysis and EC50 values were determined using nonlinear regression analysis with Prism Graph-Pad software.

[3] = Conditioned taste aversion in rats; format: in vivo, rat; settings: IP 1500 μg/kg, saccharin water intake day 1 vs day 3, FIG. 6
Procedure: Conditioned taste aversion was evaluated in rats using selected peptides. Male Sprague-Dawley rats weighing ˜300 g were kept on a 12 hour on/of light cycle. Lights out was adjusted to 12:00 p.m. with food ad libitum. Animals were trained to be accustomed to 30 minutes of access to water per day. On day 1 of the experiment, rats were given 30 minutes of access to water containing 0.15% saccharin immediately prior to being dosed ICV, IV or IP with compound. On day 2 they were given plain water for the appointed time. On day 3 the rats were given saccharin-containing water again. The amount of fluid these animals consumed on day 1 and day 3 was compared. Reduced intake on day 3 indicates a conditioned taste aversion due to illness induced by drug treatment on day 1.

hMC3-R = molecular target: T3, hMC3-R (Homo sapiens, UniProt P41968); assay: Competitive inhibition binding assay, 125I-NDP-alpha-MSH, hMC3-R membranes
T3 construct: expressed in transfected cells

[4] = Food intake and body weight change in male Sprague-Dawley rats; format: in vivo, rat; settings: for average daily body weight gain / average daily body weight lost: saline animals gained 4 g
Procedure: Food intake and body weight change was evaluated for selected peptides. Male Sprague-Dawley rats weighing ˜300 g at the beginning of the experiment were kept on a 12 hour on/of light cycle. Lights out was adjusted to 12:00 p.m. to allow for dosing just prior to the start of their dark period. Rats (12/group) were fed powdered chow and water ad libitum. For 1 week before treatment, 24-hour food intake and body weight change was recorded to assess a baseline for the group during vehicle treatment. The rats were dosed ICV, IV, SC or IP on day 0 and food intake and body weight measured daily for 1 week. Animals were dosed once per week for up to 6 weeks and their food intake and daily weight changed compared to their baseline. FIGS. 3, 4 and 5 illustrate results of different peptides at different doses and by varying routes of administration.

MC1-R = MC1-R (Mus musculus, UniProt Q01727); assay: Competitive inhibition binding assay, 125I-NDP-alpha-MSH, B-16 mouse melanoma cell membranes; settings: B-16 cells; read-out: Ki MC-1 B-16
MC4-R [5] = molecular target: T2, MC4-R; assay: Competitive inhibition binding assay, 125I-NDP-alpha-MSH, hMC4-R membranes; design: expressed in transfected cells

T2 sequence (P32245 whole entry): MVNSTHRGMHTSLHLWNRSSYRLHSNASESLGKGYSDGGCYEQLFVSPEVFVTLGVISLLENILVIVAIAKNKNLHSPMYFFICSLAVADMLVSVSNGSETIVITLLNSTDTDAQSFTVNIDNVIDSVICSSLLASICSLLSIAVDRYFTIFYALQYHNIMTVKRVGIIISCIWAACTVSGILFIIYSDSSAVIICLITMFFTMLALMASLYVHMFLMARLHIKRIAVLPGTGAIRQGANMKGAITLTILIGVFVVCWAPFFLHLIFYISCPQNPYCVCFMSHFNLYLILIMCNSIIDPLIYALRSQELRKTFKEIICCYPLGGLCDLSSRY
T3 sequence (P41968 whole entry): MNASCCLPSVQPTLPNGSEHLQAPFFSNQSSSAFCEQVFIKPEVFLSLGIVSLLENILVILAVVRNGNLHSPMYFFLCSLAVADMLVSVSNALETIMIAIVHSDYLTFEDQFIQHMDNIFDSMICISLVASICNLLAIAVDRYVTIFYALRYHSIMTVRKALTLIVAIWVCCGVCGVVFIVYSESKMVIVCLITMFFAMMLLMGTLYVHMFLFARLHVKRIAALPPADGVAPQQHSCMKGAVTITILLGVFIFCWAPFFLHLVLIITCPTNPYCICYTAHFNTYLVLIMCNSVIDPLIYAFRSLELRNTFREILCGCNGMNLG
T1 sequence (P33032 whole entry): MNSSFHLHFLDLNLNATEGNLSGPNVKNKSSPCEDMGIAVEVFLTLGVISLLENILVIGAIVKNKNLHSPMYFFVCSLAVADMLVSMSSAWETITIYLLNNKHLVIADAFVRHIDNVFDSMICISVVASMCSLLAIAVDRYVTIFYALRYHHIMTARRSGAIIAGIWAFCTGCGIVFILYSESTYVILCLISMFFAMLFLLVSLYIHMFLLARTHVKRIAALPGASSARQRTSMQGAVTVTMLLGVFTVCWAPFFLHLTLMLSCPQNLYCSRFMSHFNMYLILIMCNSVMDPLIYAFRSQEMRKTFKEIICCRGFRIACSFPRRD
Chain of MC1-R (Q01727 whole entry): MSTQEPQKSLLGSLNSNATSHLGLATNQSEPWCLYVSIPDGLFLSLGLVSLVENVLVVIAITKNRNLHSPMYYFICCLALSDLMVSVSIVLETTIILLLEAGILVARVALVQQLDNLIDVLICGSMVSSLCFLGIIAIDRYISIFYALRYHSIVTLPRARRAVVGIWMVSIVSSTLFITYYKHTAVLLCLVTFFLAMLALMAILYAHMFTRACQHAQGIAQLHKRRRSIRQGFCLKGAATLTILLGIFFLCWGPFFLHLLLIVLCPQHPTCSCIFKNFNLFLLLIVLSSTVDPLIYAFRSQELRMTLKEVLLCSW

Which results are given for `N=C(N)NCCCC(NC(=O)C(Cc1ccc(Cl)cc1)NC(=O)C(COCc1ccccc1)NC(=O)CCCCCCN)C(=O)NC(Cc1c[nH]c2ccccc12)C(N)=O` [7′-amino-heptanoyl-Ser(Bzl)-D-Phe(4-Cl)-Arg-Trp-NH2]?
percent inhibition of 125I-NDP-alpha-MSH binding, MC5-R (hMC5-R; hMC5-R membranes, 0.4 nM 125I-NDP-alpha-MSH, mean of triplicate, peptide concentration not given): 73%; Ki (hMC5-R; membranes, read-out: Ki MC-5 Mem): 175 nM; penile erection induction [1]: induced erections; HEK-293 (MC4-R) cells Classification (MC4-R [2]): Agonist; conditioned taste aversion response [3]: no conditioned taste aversion response; conditioned taste aversion response ([3]; listed as 7′-amino-heptanoyl-Ser(Bzl)-D-Phe(4′-Cl)-Arg-Trp-NH2): did not induce a conditioned taste aversion response; percent inhibition of 125I-NDP-alpha-MSH binding, MC3-R (hMC3-R; hMC3-R membranes, 0.4 nM 125I-NDP-alpha-MSH, mean of triplicate, peptide concentration not given): 94%; Ki (hMC3-R; membranes, read-out: Ki MC-3 Mem): 25 nM; average daily body weight gain ([4]; ICV 0.1 nmol): 3 g; average daily body weight lost ([4]; ICV 0.5 nmol): 1 g; average daily body weight lost ([4]; ICV 1.0 nmol): 3 g; time by which animals returned to baseline after dosing ([4]; ICV dosing, FIG. 4): ≤ 48 h; average daily body weight gain ([4]; IP 750 μg/kg): 4 g; average daily body weight gain ([4]; IP 1500 μg/kg): 2 g; average daily body weight lost ([4]; IP 3000 μg/kg): 1 g; Ki (MC1-R): 795 nM; percent inhibition of 125I-NDP-alpha-MSH binding, MC4-R (MC4-R [5]; hMC4-R membranes, 0.4 nM 125I-NDP-alpha-MSH, mean of triplicate, peptide concentration not given): 99%; Ki (MC4-R [5]; membranes, read-out: Ki MC-4 Mem): 1 nM
